From ChEMBL document CHEMBL1201862, “PubChem BioAssay data set” (2004)
Values joined by “and” are separate entries in the source; they are usually repeats but may differ in a detail not shown here. Identical values can stand only once. Active and inactive are the calls of the source.

Columns and labels:
Cytochrome P450 3A4 = Cytochrome P450 3A4 (Homo sapiens, UniProt P08684); settings: Potency;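 also: confirmatory qHTS run detecting inhibitors and substrates of CYP3A4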
[1] = target: DNA dC->dU-editing enzyme APOBEC-3G (Homo sapiens, UniProt Q9HC16); assay: Dose Response confirmation of small molecule APOBEC3G DNA Deaminase Inhibitors via a fluorescence-based single-stranded DNA deaminase assay. [Related pubchem assays (depositor defined):AID493012, AID493028]; type: functional
Large T antigen = Large T antigen (Simian virus 40, UniProt P03070); type: functional, Betapolyomavirus macacae;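 also: Confirmatory-stage PubChem screen for compounds that inhibit SV40 T antigen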
SUMO-activating enzyme = SUMO-activating enzyme (Homo sapiens, UniProt Q9UBT2); assay: SUMOylation inhibitor hit validation, confirmation, SUMOylation inhibitor project, biochemical, AlphaScreen (AID 2018); type: functional
Bcl-2-like protein 10 = target: T1, Bcl-2-like protein 10 (Homo sapiens, UniProt Q9HD36); assay: displacers of TR3 peptide from Bcl-B, primary screen, selectivity assay for Bfl-1 inhibitor project, biochemical, fluorescence polarization, FITC-TR3 peptide (AID 748);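 also: fluorescence polarization from a fluorescein-labelled TR3 peptide binding purified Bcl-B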
T1 sequence (Q9HD36 whole entry): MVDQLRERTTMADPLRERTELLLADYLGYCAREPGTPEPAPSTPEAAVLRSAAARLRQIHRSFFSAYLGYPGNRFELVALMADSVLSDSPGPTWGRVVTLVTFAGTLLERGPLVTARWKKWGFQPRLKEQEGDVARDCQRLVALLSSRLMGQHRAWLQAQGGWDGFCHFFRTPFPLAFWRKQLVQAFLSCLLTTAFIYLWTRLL

cells [2] = type: functional, cell-based
cells [3] = type: functional, cell-based; remark: listed apart in the source
[4] = HepG2 cell cytotoxicity, dose response, cytotoxicity control for non-replicating M. tuberculosis project (AID 489018); type: functional; settings: Mycobacterium tuberculosis
[5] = Vero E6 cell cytotoxicity, dose response, cytotoxicity control for non-replicating M. tuberculosis project, secondary assay (AID 492998); type: functional, VeroE6; settings: Vero C1008
[6] = THP-1 cell cytotoxicity, dose response, cytotoxicity control for non-replicating M. tuberculosis project (AID 489025); type: functional
cells [7] = type: functional
Streptococcus = assay: Group A Streptococcus viability loss, dose response, counter-screen for streptokinase expression inhibitor project, luminescence, BacTiterGlo (AID 1915); type: functional, organism-based;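 also: potency for reduction of bacterial viability or growth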
[8] = target: T2, Calpain-2 catalytic subunit (Sus scrofa, UniProt P43367); assay: pig calpain II inhibitor potency, dose response, biochemical, fluorogenic peptide substrate (AID 1420); type: functional
T2 sequence (P43367 whole entry): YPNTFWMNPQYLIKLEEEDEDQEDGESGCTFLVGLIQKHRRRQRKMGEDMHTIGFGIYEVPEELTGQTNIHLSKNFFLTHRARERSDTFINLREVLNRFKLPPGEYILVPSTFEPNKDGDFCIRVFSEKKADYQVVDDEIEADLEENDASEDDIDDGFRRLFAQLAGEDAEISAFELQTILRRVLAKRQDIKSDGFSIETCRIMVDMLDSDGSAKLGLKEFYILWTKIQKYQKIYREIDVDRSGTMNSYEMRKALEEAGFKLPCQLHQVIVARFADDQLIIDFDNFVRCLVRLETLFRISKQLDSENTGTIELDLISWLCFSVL

[9] = cytotoxicity toward NIH3T3 fibroblasts, dose response, counter-screen, cell-based, ATP luminescence, mouse fibroblasts (AID 2010); type: functional;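 also: cells exposed to compound for about 90 hours before reading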
[10] = tested on: Streptococcus sp. 'group A'; assay: growth inhibition of control SK(-) GAS strain, dose response, counter-screen for streptokinase expression inhibitor project, luminescence, kanamycin, BacTiterGlo, confirmation (AID 1900); type: functional, organism-based
[11] = inhibitors of intracellular T. cruzi replication, confirmation, NIH3T3 host cells, beta-gal luminescence (AID 2044); type: functional, cell-based;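 also: intracellular parasites grown in NIH/3T3 mouse fibroblasts as host cells; luminescent beta-galactosidase reporter signal from transgenic T. cruzi replicating inside host cells; inhibitors lower the luminescence signal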
[12] = Luminescence Cell-Based Dose Retest to Confirm Inhibitors of Cancer Stem Cells. [Related pubchem assays (depositor defined):AID2717, AID2721]; type: functional; settings: Homo sapiens
[13] = target: T3, Ubiquitin-conjugating enzyme E2 N (Homo sapiens, UniProt P61088); type: functional;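 also: Dose-response confirmation in a TR-FRET assay detecting UBC13-driven polyubiquitin chain formation, inhibition measured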
T3 sequence (P61088 whole entry): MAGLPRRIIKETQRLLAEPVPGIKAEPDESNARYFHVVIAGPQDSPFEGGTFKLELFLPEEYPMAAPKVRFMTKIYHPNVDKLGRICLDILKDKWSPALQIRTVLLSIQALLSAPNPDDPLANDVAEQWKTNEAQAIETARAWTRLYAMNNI

Streptokinase A = target: T4, Streptokinase A (Streptococcus pyogenes serotype M1, UniProt P10520); assay: S. pyogenes streptokinase expression inhibitors, potency, dose response, plasminogen activation absorbance, OD405 (AID 1914); type: functional, Streptococcus pyogenes M1 GAS;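 also: secreted streptokinase activity via plasminogen activation per viability signal from cell pellet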
T4 sequence (P10520 whole entry): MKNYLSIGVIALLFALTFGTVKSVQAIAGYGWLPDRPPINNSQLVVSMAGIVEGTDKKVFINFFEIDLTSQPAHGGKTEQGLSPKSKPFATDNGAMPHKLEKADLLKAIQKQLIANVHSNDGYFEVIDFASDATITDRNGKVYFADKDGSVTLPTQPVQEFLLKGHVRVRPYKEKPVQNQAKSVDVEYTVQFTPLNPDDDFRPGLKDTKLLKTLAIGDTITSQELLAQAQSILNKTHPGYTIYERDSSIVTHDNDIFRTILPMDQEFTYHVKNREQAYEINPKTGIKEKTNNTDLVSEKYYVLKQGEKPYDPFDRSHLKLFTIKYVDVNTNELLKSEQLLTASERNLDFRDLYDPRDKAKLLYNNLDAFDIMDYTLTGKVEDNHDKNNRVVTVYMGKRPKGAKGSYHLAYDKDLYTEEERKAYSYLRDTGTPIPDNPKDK

[14] = target: T5, Probable nicotinate-nucleotide adenylyltransferase (Staphylococcus aureus (strain N315), UniProt P65502); type: functional, Staphylococcus aureus subsp. aureus N315; settings: read-out: IC50_Mean;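 as to IC50 Mean: confirmatory dose-response retesting of NadD inhibitor hits first found in an ultra-high-throughput screen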
[15] = target: T5, Probable nicotinate-nucleotide adenylyltransferase; type: functional, Staphylococcus aureus subsp. aureus N315
[16] = target: T6, Microphthalmia-associated transcription factor (Homo sapiens, UniProt O75030); assay: TRPM1 promoter luciferase signal decrease, dose response, MITF inhibitor project, cell-based, SK-MEL-5, cherry-picked, set 3 (AID 493073); type: functional
T6 sequence (O75030 whole entry): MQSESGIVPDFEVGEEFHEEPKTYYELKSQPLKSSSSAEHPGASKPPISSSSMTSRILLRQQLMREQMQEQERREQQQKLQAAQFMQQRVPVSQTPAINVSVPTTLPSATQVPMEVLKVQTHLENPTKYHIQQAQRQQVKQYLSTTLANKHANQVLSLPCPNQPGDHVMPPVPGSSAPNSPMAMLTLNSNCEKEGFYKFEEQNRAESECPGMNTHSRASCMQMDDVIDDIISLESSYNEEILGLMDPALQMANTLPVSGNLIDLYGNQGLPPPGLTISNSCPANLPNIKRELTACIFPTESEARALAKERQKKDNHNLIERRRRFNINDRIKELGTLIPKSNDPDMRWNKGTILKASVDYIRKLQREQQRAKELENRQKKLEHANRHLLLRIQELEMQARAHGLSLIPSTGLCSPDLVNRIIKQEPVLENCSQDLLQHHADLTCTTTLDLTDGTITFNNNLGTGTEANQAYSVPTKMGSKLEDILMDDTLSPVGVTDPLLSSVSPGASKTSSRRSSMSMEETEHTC

[17] = target: T7, Tyrosyl-DNA phosphodiesterase 2 (Homo sapiens, UniProt O95551); assay: human TDP2 enzyme inhibitors, dose response, biochemical, epi absorbance, IC50 (AID 743297)
T7 sequence (O95551 whole entry): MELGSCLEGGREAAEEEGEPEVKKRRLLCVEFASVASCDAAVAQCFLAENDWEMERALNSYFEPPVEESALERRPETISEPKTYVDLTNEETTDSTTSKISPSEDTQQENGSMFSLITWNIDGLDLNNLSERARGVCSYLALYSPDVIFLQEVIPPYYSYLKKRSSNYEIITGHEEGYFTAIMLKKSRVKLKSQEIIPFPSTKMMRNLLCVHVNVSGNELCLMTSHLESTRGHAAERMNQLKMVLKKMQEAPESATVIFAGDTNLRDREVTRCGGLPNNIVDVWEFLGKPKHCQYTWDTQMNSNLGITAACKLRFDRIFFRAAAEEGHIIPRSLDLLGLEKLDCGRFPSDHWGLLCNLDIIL

[18] = target: T8, Mannose-6-phosphate isomerase (Homo sapiens, UniProt P34949); assay: inhibitors of human PMI, primary screen, biochemical, fluorescence intensity, coupled assay (AID 1209)
T8 sequence (P34949 whole entry): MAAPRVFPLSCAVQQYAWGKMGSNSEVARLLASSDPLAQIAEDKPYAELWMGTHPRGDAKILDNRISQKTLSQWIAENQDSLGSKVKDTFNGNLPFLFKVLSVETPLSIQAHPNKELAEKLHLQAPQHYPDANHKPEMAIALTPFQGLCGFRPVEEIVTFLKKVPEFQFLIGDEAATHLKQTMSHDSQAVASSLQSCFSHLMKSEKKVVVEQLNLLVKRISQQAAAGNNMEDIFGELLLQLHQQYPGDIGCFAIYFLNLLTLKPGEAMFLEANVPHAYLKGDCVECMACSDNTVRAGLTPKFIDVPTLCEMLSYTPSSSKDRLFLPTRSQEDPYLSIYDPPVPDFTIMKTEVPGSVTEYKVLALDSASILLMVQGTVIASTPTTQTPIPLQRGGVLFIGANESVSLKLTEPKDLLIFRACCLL

Cytochrome P450 3A4, sequence (P08684 whole entry): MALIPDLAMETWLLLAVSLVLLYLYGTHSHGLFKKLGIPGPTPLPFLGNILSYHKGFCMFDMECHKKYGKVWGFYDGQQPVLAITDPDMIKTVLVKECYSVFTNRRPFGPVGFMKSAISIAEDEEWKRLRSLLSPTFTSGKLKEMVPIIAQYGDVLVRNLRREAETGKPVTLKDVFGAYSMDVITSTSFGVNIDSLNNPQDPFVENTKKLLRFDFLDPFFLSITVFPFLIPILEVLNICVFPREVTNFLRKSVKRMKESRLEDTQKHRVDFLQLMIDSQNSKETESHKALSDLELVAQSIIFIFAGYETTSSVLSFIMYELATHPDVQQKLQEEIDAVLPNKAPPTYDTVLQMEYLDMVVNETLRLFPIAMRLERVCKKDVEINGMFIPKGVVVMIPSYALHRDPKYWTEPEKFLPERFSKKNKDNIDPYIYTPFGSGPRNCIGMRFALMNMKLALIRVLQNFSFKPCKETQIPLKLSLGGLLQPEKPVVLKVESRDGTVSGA
SUMO-activating enzyme, sequence (Q9UBE0 whole entry): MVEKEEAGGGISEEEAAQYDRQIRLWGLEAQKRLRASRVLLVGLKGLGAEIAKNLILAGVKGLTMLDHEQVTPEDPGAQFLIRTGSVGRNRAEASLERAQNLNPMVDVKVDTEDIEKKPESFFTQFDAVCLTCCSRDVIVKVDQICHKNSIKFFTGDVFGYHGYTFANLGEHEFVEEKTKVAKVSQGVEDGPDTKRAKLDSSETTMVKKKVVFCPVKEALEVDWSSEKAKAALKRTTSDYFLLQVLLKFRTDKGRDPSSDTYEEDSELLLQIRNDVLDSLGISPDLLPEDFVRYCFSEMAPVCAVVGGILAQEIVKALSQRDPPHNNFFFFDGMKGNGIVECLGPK
SUMO-activating enzyme, sequence (Q9UBT2 whole entry): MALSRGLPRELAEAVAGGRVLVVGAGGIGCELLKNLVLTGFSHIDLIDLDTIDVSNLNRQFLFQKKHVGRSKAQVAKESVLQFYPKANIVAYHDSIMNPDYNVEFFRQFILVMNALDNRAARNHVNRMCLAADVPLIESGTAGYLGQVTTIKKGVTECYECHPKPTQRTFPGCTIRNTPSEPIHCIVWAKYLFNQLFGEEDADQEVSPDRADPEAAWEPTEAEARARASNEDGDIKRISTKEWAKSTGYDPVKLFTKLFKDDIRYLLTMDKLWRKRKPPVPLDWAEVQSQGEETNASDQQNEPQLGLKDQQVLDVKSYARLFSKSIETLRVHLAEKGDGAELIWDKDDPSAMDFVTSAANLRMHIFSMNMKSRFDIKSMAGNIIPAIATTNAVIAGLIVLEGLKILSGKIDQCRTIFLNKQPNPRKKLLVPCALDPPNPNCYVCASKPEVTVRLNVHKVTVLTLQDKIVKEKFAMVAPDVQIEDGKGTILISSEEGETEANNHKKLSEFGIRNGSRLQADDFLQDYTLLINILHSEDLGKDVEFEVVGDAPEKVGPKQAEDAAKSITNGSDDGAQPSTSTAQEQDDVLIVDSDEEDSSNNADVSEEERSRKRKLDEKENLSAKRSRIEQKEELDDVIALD
T5 sequence (P65502 whole entry): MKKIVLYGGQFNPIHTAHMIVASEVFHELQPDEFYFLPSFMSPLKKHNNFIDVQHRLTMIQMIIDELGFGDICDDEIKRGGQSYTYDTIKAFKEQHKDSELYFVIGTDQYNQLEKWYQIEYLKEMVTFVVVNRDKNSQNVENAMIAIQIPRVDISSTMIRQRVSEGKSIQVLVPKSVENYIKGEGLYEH
DNA dC->dU-editing enzyme APOBEC-3G, sequence (Q9HC16 whole entry): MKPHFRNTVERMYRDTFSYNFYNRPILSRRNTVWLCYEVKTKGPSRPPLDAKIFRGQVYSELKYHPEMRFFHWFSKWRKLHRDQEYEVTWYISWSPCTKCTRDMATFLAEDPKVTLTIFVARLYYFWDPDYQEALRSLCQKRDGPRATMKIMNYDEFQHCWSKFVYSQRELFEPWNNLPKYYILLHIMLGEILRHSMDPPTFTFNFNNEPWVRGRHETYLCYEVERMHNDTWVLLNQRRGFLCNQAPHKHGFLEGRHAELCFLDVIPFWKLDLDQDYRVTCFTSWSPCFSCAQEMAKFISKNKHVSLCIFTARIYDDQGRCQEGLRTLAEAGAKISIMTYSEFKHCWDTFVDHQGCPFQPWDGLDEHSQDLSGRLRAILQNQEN
Large T antigen, sequence (P03070 whole entry): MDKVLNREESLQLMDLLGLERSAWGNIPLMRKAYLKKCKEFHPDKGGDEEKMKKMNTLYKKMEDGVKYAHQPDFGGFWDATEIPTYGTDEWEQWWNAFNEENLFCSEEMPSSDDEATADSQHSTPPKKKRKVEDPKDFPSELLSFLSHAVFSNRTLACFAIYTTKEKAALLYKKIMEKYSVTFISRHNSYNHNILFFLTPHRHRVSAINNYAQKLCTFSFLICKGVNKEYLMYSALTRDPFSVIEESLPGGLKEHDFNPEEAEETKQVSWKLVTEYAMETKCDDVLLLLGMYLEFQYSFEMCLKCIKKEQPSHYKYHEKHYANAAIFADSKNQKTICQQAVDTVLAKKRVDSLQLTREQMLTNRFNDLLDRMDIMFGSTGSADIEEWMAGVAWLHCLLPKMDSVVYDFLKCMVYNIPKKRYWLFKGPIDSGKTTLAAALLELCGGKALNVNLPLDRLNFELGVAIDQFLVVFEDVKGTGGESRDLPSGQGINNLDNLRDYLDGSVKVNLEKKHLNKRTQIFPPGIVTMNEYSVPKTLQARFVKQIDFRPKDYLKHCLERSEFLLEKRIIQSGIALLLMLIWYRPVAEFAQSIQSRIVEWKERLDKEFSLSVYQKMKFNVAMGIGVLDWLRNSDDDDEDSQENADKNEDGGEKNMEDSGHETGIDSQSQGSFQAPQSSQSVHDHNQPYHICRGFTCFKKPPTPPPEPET

In the case of `C[C@@H](CO)NC(=O)[C@@H]1C=C2c3cccc4[nH]cc(c34)C[C@H]2N(C)C1` [ERGONOVINE], the AC50 (Cytochrome P450 3A4) is reported as 20 µM (inconclusive).
In the case of `Cc1c(N2C(=O)/C(=C\c3ccccc3O)SC2=S)c(=O)n(-c2ccccc2)n1C`, the IC50 [1] is reported as 46.2 µM (active) and the IC50 (Large T antigen) is reported as 45.2 µM (active).
For `O=C(Nc1ccc2nc3ccccc3nc2c1)c1ccc(Br)cc1`, the IC50 (SUMO-activating enzyme) was 26.7 µM (active).
With `O=C1c2ccccc2C(=O)c2c1cccc2N1CCN(CCO)CC1` the IC50 (Bcl-2-like protein 10) was > 25 µM (inactive).
For `O=C(COC(=O)c1ccccc1Nc1ccccc1)NCc1ccccc1Cl`, the EC50 (cells [2]) was > 350 µM (not active) and the EC50 (cells [3]) was > 350 µM (not active).
In the case of `CCC(=O)Nc1cccc(NC(C)=O)c1`, the IC50 (Bcl-2-like protein 10) is reported as 56.6 µM (inactive).
With `Cc1nc(C(=O)NNC(=O)c2ccc(Cl)cc2)c(C(F)(F)F)o1` the CC50 [4] was > 20 µM (active), the CC50 [5] was > 20 µM (active) and the CC50 [6] was 27.8 µM (active). For the same compound, the IC50 (cells [7]) was 44.9 µM (active).
With `COC(=O)C1=C(C)N(Cc2ccccc2)[C@]23O[C@](C(=O)OC)(C(=O)N2C1c1ccccc1)C1C(=O)N(c2ccccc2)C(=O)C13` (stereo not given in full) the AC50 (Cytochrome P450 3A4) was 5.01 µM (inconclusive) and 3.98 µM (inconclusive).
In the case of `COc1ccc(C(=O)Nc2ccc(-c3nnn(CC(=O)NCc4ccco4)n3)cc2)cc1`, the IC50 (SUMO-activating enzyme) is reported as 43.1 µM (active).
With `Cc1cc(C(=O)N/N=C/c2ccc([N+](=O)[O-])s2)[nH]n1` the EC50 (Streptococcus) was 2.69 µM (active), the IC50 [8] was 6.84 µM (not active) and the EC50 [9] was > 60 µM (not active). The CC50 [5] was 16.9 µM (active), the EC50 [10] was 1.86 µM (active) and the EC50 [11] was 0.612 µM (active). For the same compound, the CC50 [6] was > 40 µM (active) and the IC50 (cells [7]) was 8.88 µM (active).
For `OC(CNCC1CCCO1)Cn1c2ccc(Cl)cc2c2cc(Cl)ccc21` (stereo not given), the AC50 [12] was 3.42 µM (active), the CC50 [4] was 7.5 µM (active) and the IC50 [13] was > 20 µM (inactive). The CC50 [5] was 11.2 µM (active), the CC50 [6] was 9.03 µM (active) and the IC50 (cells [7]) was 8.48 µM (active).
In the case of `COc1ccc(OC)c(NC2=NCCCS2)c1`, the EC50 (cells [2]) is reported as > 350 µM (not active) and the EC50 (cells [3]) is reported as > 350 µM (not active).
With `O=C(NC(c1ccccc1)c1ccccc1)C1CCCO1` (stereo not given) the EC50 (cells [2]) was > 350 µM (not active) and the EC50 (cells [3]) was > 350 µM (not active).
For `CCN(CC)CCCC(C)n1c(-c2ccccc2)nc2c(NCCOC)nc(C)nc21` (stereo not given), the AC50 (Cytochrome P450 3A4) was 20 µM (inconclusive).
With `CCCCNC(=O)COC(=O)c1ccc(Cl)c(S(=O)(=O)N2CCCC2)c1` the IC50 (Bcl-2-like protein 10) was > 100 µM (inactive).
For `Cc1ccnc(NS(=O)(=O)c2ccc(NC(=O)c3cc(-c4ccc(Br)cc4)nc4ccccc34)cc2)n1`, the EC50 (Streptococcus) was 68.9 µM (active), the EC50 (Streptokinase A) was 5.84 µM (inconclusive) and the IC50 [14] was 20.9 µM (active). For the same compound, the EC50 [10] was 7.74 µM (active) and the IC50 [15] was 7.03 µM (active).
For `CC1CCC2C(=O)OC(Cc3ccccc3)CN2C1c1ccc(Br)cc1` (stereo not given), the AC50 (Cytochrome P450 3A4) was 3.98 µM (inconclusive) and 5.01 µM (inconclusive).
With `CCC[n+]1c(C)sc2c3c(ccc21)CCCC3` the AC50 [16] was 9.87 µM (active).
For `COc1cccc(C(=O)N2N=C(c3ccccn3)CC2(O)C(F)(F)F)c1` (stereo not given), the CC50 [4] was > 20 µM (active), the CC50 [5] was 10.1 µM (active) and the CC50 [6] was 9.99 µM (active). The IC50 (cells [7]) was 8.68 µM (active).
In the case of `O=C(Nc1c(-c2ccc3c(c2)OCO3)[nH][nH]c1=O)c1ccc2c(c1)OCO2`, the IC50 [17] is reported as > 129 µM (inactive).
With `CN(C)C(S)=Nc1nc2ccccc2s1` the EC50 [9] was > 60 µM (not active), the IC50 [18] was 3.79 µM (active) and the EC50 [11] was 2.48 µM (active).
In the case of `OCC(O)Cc1ccc2c(c1)OCO2` (stereo not given) [SAFROLGLYCOL], the AC50 (Cytochrome P450 3A4) is reported as 39.8 µM (inconclusive).
